The test has as its system soy. Particulars: in-furrow, five grams per acre, versus check; for average soybean seed weight per pot: FIG. 49.

Description: The Generate was applied at a rate one pint per acre. The remaining compositions were applied at a rate of five grams per acre. The soy was planted in May and harvested in October, with fertilizer applications in June and July.

As for nickel lactate, the “average soybean seed weight per pot” value was “increase seed weight over the check”. Also, the “total average soybean seed weight” value (FIG. 48) was “increase total average soybean seed weight above the check”.
On to nickel ammonium citrate, for which the “average soybean seed weight per pot” value is recorded as “increase seed weight over the check”.

The values are drawn from patent US20200187505A1, “SEED, SOIL, AND PLANT TREATMENT COMPOSITIONS” (RALCO NUTRITION, INC., priority 2017, published 2020).
